In one assay the target is COX-1 (Homo sapiens, UniProt P23219). Nature of the assay: biochemical. The assay is classed as biochemical. Particulars: Table III; U937. The procedure: Compounds are tested as inhibitors of cyclooxygenase activity in whole cell cyclooxygenase assays. Both of these assays measure prostaglandin E2 synthesis in response to arachidonic acid, using a radioimmunoassay. Cells used for these assays are human osteosarcoma 143 cells (which specifically express COX-2) and human U-937 cells (which specifically express COX-1). In these assays, 100% activity is defined as the difference between prostaglandin E2 synthesis in the absence and presence of arachidonate.
U 937 cells are pelleted by centrifugation at 500×g for 5 min and washed once with phosphate-buffered saline and repelleted. Cells are resuspended in homogenization buffer consisting of 0.1 M Tris-HCl, pH 7.4, 10 mM EDTA, 2 μg/ml leupeptin, 2 μg/ml soybean trypsin inhibitor, 2 μg/ml aprotinin and 1 mM phenyl methyl sulfonyl fluoride. The cell suspension is sonicated 4 times for 10 sec and is centrifuged at 10,000×g for 10 min at 4° C. The supernatant is centrifuged at 100,000×g for 1 hr at 4 ° C. The 100,000×g microsomal pellet is resuspended in 0.1 M Tris-HCl, pH 7.4, 10 mM EDTA to approximately 7 mg protein/ml and stored at -80° C.
Microsomal preparations are thawed immediately prior to use, subjected to a brief sonication, and then diluted to a protein concentration of 125 μg/ml in 0.1 M Tris-HCl buffer, pH 7.4 containing 10 mM EDTA, 0.5 mM phenol, 1 mM reduced glutathione and 1 μM hematin. Assays are performed in duplicate in a final volume of 250 μl. Initially, 5 μd of DMSO vehicle or drug in DMSO are added to 20 μl of 0.1 M Tris-HCl buffer, pH 7.4 containing 10 mM EDTA in wells of a 96-deepwell polypropylene titre plate. 200 μl of the microsomal preparation are then added and pre-incubated for 15 min at room temperature before addition of 25 μl of […] in 0.1 M Tris-HCl and 10 mM EDTA, pH 7.4. […] Cyclooxygenase activity is defined as the difference between PGE2 levels in samples incubated in the presence of arachidonic acid and ethanol vehicle.

The target in assay [1] is T1, COX-2 (Homo sapiens, UniProt P35354).
T1 sequence (P35354 18-604): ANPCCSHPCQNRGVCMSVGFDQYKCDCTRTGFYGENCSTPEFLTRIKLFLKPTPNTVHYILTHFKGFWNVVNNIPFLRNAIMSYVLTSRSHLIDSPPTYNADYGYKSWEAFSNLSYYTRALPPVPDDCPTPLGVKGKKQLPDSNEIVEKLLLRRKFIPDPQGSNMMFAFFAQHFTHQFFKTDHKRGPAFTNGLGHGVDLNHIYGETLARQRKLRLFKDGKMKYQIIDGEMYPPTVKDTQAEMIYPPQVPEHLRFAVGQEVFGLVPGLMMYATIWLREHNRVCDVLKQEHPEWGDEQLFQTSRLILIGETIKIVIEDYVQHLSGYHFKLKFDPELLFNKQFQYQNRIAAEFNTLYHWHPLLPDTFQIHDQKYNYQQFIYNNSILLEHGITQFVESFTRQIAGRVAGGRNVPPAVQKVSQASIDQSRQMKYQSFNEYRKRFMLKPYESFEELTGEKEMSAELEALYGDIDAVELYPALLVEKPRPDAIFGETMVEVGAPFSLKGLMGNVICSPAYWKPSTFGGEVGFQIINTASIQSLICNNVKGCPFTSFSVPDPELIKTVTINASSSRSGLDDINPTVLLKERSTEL
Description: cell-based. Particulars: Table IV; CHO[hCOX-2] cells, 10 μM AA. The procedure:
Chinese hamster ovary (CHO) cell lines which have been stably transfected with an eukaryotic expression vector pCDNAIII containing either the human COX-1 or COX-2 cDNA's are used for the assay. These cell lines are referred to as CHO [hCOX-1] and CHO [hCOX-2], respectively. […] Cells (0.3×10^6 cells in 200 μl) are preincubated with 3 μl of the test drug or DMSO vehicle for 15 min at 37° C. […] Cells are then challenged in the presence or absence of drug with the AA/HBSS solution to yield a final concentration of 0.5 μM AA in the CHO[hCOX-1] assay and a final concentration of 10 μM AA in the CHO[hCOX-2] assay. […] The samples are centrifuged at 300×g at 4° C. for 10 min, and an aliquot of the clarified supernatant is appropriately diluted for the determination of PGE2 levels using an enzyme-linked immunoassay for PGE2 (Correlate PGE2 enzyme immunoassay kit, Assay Designs, Inc.). Cyclooxygenase activity in the absence of test compounds is determined as the difference in PGE2 levels of cells challenged with arachidonic acid versus the PGE2 levels in cells mock-challenged with ethanol vehicle. Inhibition of PGE2 synthesis by test compounds is calculated as a percentage of the activity in the presence of drug versus the activity in the positive control samples.

Assay [2] concerns the target T1, COX-2. Nature of the assay: cell-based. Particulars: Table IV; human whole blood, LPS-induced PGE2; read-out: COX-2 (IC50, μM) HWB. The text has this: As well, platelets in whole blood contain a large amount of the COX-1 enzyme. Immediately following blood clotting, platelets are activated through a thrombin-mediated mechanism. […] Therefore, the degree of selectivity by the test compound can be determined by measuring the levels of PGE2 after LPS induction (COX-2) and TxB2 following blood clotting (COX-1) in the same assay.
A. COX-2 (LPS-induced PGF, production)
Fresh blood is collected in heparinized tubes by venipuncture from both male and female volunteers. The subjects have no apparent inflammatory conditions and have not taken any NSAIDs for at least 7 days prior to blood collection. Plasma is immediately obtained from a 2 mL blood aliquot to use as blank (basal levels of PGE2).

Like-named read-outs stand apart in the source and are kept apart here.

Chain of COX-1 (P23219 24-599): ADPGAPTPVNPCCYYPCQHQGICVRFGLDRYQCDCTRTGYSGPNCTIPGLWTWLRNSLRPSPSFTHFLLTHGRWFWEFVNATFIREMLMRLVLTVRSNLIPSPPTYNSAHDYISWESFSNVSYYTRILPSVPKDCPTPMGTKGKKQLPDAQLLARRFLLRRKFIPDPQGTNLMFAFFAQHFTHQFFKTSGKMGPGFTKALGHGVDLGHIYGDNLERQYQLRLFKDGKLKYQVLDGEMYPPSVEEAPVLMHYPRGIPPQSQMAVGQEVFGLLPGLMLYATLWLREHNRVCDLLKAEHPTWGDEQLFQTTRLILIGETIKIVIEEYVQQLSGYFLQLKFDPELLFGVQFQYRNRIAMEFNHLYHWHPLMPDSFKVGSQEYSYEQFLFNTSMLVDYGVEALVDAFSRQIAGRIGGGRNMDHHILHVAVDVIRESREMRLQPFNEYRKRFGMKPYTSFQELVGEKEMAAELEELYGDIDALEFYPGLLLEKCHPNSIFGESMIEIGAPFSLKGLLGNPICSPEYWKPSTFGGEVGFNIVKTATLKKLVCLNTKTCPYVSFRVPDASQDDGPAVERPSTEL

As usually defined, the IC50 is the concentration at which inhibition is half-maximal. In the case of `CC1(C)OC(=O)C(Oc2ccc(F)cc2)=C1c1ccc(S(C)(=O)=O)cc1` [Example 8, 3-(4-Fluorophenoxy)-5,5-dimethyl-4-(4-(methylsulfonyl)phenyl)-5H-furan-2-one], the IC50 against COX-1 came to 0.3 µM.
`Cc1ncc(OC2=C(c3ccc(S(C)(=O)=O)cc3)C(C)(C)OC2=O)cc1Br` [Example 137]: the half-inhibitory concentration (IC50) at COX-2 [1] was found to be 0.55 µM; at COX-2 [2], 5.2 µM.
On the same counts, the results for `CC1(C)OC(=O)C(Oc2ccc(C(C)(C)O)cc2)=C1c1ccc(S(C)(=O)=O)cc1` [Example 191] are 0.98 µM and 4.3 µM.
Take `CC1(C)OC(=O)C(Oc2cccc(C(F)(F)F)c2)=C1c1ccc(S(C)(=O)=O)cc1` [Example 110]: on COX-2 [1], the IC50 was greater than 5 µM.
On to `CC1(C)OC(=O)C(Oc2ccc(Cl)c(Cl)c2)=C1c1ccc(S(C)(=O)=O)cc1` [Example 7, 3-(3,4-Dichlorophenoxy)-5,5-dimethyl-4-(4-(methylsulfonyl)phenyl)-5H-furan-2-one], for which the IC50 on COX-1 stood at 1 µM.
The same measure, in the same setting: the same measure for `CS(=O)(=O)c1ccc(C2=C(Sc3ccccc3)C(=O)OC23CCCC3)cc1` [Example 21, 4-(4-(Methylsulfonyl)phenyl)-3-phenylthio-1-oxaspiro[4.4]non-3-en-2-one]: greater than 10 µM.
In turn, `CC1(C)OC(=O)C(Oc2ccc(Cl)cc2)=C1c1ccc(S(C)(=O)=O)cc1` [Example 6, 3-(4-Chlorophenoxy)-5,5-dimethyl-4-(4-(methylsulfonyl)phenyl)-5H-furan-2-one] yielded an IC50 against COX-1 of 0.4 µM.
The same measure, in the same setting: the same measure for `CC1(C)OC(=O)C(Cc2ccccc2)=C1c1ccc(S(C)(=O)=O)cc1` [Example 16, 3-Benzyl-5,5-dimethyl-4-(4-(methylsulfonyl)phenyl)-5H-furan-2-one]: greater than 10 µM; for `CN(C1=C(c2ccc(S(C)(=O)=O)cc2)C(C)(C)OC1=O)c1ccccc1` [Example 13, 3-(N-Methyl-N-phenylamino)-5,5-dimethyl-4-(4-(methylsulfonyl)phenyl)-5H-furan-2-one]: greater than 10 µM.
Turning to `CC1(COC2=C(c3ccc(S(C)(=O)=O)cc3)C(C)(C)OC2=O)CC1` [Example 173], the IC50 at COX-2 [2] is less than 0.41 µM.
In the case of `NS(=O)(=O)c1ccc(C2=C(Sc3ccccc3)C(=O)OC23CCCC3)cc1` [Example 22, 4-(2-Oxo-3-phenylthio-1-oxa-spiro[4,4]non-3-en-4-yl)benzene-sulfonamide], the IC50 against COX-1 was greater than 1 µM.
Same read-out and setting: in the case of `CC1(C)OC(=O)C(Sc2ccc(F)cc2)=C1c1ccc(S(C)(=O)=O)cc1` [Example 9, 3-(4-Fluorophenylthio)-5,5-dimethyl-4-(4-(methylsulfonyl)phenyl)-5H-furan-2-one] it was greater than 10 µM.
For `CC1(C)OC(=O)C(C(=O)c2ccccc2)=C1c1ccc(S(C)(=O)=O)cc1` [Example 19b, 3-Benzoyl-5,5-dimethyl-4-(4-(methylsulfonyl)phenyl)-5H-furan-2-one], the IC50 on COX-1 is greater than 10 µM.
As to `CC1(C)OC(=O)C(Cc2ccc(F)cc2)=C1c1ccc(S(C)(=O)=O)cc1` [Example 23, 3-(4-Fluorobenzyl)-5,5-dimethyl-4-(4-(methylsulfonyl)phenyl)-5H-furan-2-one], on COX-1, the IC50 was greater than 30 µM.
The same measure, in the same setting: in the case of `CC1(C)OC(=O)C(Oc2ccc(F)cc2F)=C1c1ccc(S(C)(=O)=O)cc1` [Example 5, 3-(2,4-Difluorophenoxy)-5,5-dimethyl-4-(4-(methylsulfonyl)phenyl)-5H-furan-2-one] it was 0.3 µM; in that of `CC1(C)OC(=O)C(C(O)c2ccc(F)c(F)c2)=C1c1ccc(S(C)(=O)=O)cc1` (centres unmarked) [Example 17, 3-(3,4-Difluorophenylhydroxymethyl)-5,5-dimethyl-4-(4-(methylsulfonyl)phenyl)-5H-furan-2-one], greater than 10 µM.
Still for that read-out and setting: in the case of `Cc1cccc(OC2=C(c3ccc(S(C)(=O)=O)cc3)C(C)(C)OC2=O)n1` [Example 27, 3-(6-Methyl-2-pyridyloxy)-5,5-dimethyl-4-(4-(methylsulfonyl)phenyl)-5H-furan-2-one] it was greater than 10 µM; in that of `CS(=O)(=O)c1ccc(C2=C(Oc3ccccc3)C(=O)OC23CCCC3)cc1` [Example 20, 4-(4-(Methylsulfonyl)phenyl)-3-phenoxy-1-oxaspiro[4.4]non-3-en-2-one], 0.3 µM; in that of `CC1(C)OC(=O)C(Nc2ccccc2)=C1c1ccc(S(C)(=O)=O)cc1` [Example 12, 3-(N-Phenylamino)-5,5-dimethyl-4-(4-(methylsulfonyl)phenyl)-5H-furan-2-one], greater than 10 µM.
The same measure, in the same setting: in the case of `CC1(C)OC(=O)C(C(=O)c2ccc(F)c(F)c2)=C1c1ccc(S(C)(=O)=O)cc1` [Example 18, 3-(3,4-Difluorobenzoyl)-5,5-dimethyl-4-(4-(methylsulfonyl)phenyl)-5H-furan-2-one] it was greater than 30 µM; in that of `CC1(C)OC(=O)C(Oc2cccc(F)c2)=C1c1ccc(S(C)(=O)=O)cc1` [Example 2, 3-(3-Fluorophenoxy)-5,5-dimethyl-4-(4-(methylsulfonyl)phenyl)-5H-furan-2-one], 3 µM; in that of `CC1(C)OC(=O)C(Sc2cc(F)cc(F)c2)=C1c1ccc(S(C)(=O)=O)cc1` [Example 10, 3-(3,5-Difluorophenylthio)-5,5-dimethyl-4-(4-(methylsulfonyl)phenyl)-5H-furan-2-one], greater than 10 µM.
Turning to `CC1(C)OC(=O)C(Oc2ccccn2)=C1c1ccc(S(C)(=O)=O)cc1` [Example 26, 3-(2-pyridyloxy)-5,5-dimethyl-4-(4-(methylsulfonyl)phenyl)-5H-furan-2-one], the IC50 against COX-1 was roughly 10 µM.
Take `C[C@]1(CC(F)(F)F)OC(=O)C(Oc2ccc(Cl)cn2)=C1c1ccc(S(C)(=O)=O)cc1` [Example 130, (5R)-3-(5-Chloro-2-pyridyloxy)-5-methyl-4-(4-methylsulfonyl)phenyl-5-(2,2,2-trifluoroethyl)-5H-furan-2-one]: at COX-2 [2], the IC50 was less than 0.41 µM.

(Values after patent US5981576A, “(Methylsulfonyl)phenyl-2-(5H)-furanones as COX-2 inhibitors” (Merck Frosst Canada, Inc., priority 1998, dated 1999).)
